Test results from patent publication US12497358B2, “Inhibitor of EIF2α dephosphorylation” (THE ROYAL INSTITUTION FOR THE ADVANCEMENT OF …, priority 2021, dated 2025).

Columns and labels:
[1] = system: PAX7-expressing muscle stem cells (MuSCs); assay: DDX6-positive RNA granules in PAX7-expressing MuSCs, ex vivo culture, immunofluorescence; type: cell-based, mice
Method: (§1) Moreover, cells and single EDL myofibres were cultured in 39% Dulbecco's modified eagle medium (DMEM), 39% F12, 20% fetal calf serum (FCS) (Life Technologies), 2% UltroserG™ (Pall Life Sciences). C2C12 myoblasts were cultured in DMEM supplemented with 20% FCS. When indicated, culture conditions were supplemented with 0.1% dimethylsulfoxide (DMSO control, Sigma), 10 μM sal003 (Sigma), or 0.1-0.2 μM C15.
P-elF2α is required for the assembly of DDX6-positive(+) RNA granules in quiescent and self-renewing satellite cells. Activated muscle stem cells (MuSCs) dephosphorylate elF2α, RNA granules disassemble, and the myogenic program is activated.
Immunoassays were also performed to further confirm the effect of C15 on the dephosphorylation of elF2α. For immunofluorescence, cultured satellite cells were fixed in 4% paraformaldehyde (PFA), permeabilized with 0.2% Triton™, 50 mM NH4Cl and blocked in 5% horse serum (HS). Single EDL myofibers were fixed with 4% PFA, permeabilized with 0.1% Triton™ in PBS and blocked in 5% horse serum (HS) with 0.1% Triton™ in PBS. TA muscles were fixed for 2 hr in 0.5% PFA at 4° C. and equilibrated overnight in 20% sucrose at 4° C. Tissues were mounted in Frozen Section Compound (VWR) and flash frozen in a liquid nitrogen-cooled isopentane bath. […]

[2] = system: MuSCs isolated from skeletal muscle of Dmd^mdx mice; assay: Ex vivo culture of MuSCs from Dmd^mdx mice: PAX7 expression, myocolony size, fusion index; type: cell-based
Method: as §1
PAX7 expression marks MuSCs that retained stem cell properties to regenerate muscle. Under normal culture conditions, PAX7-expression is down regulated as MuSCs differentiate and lose their stem cell properties to regenerate muscle. […] Conceptually, these ex vivo results support a model by which pharmacological interventions that promote MuSC expansion (FIG. 10A, FIG. 10B, and FIG. 11) in the short term will lead to improved muscle mass and strength in the long term.
(§2) Immunoassays were also performed to further confirm the effect of C15 on the dephosphorylation of elF2α. For immunofluorescence, cultured satellite cells were fixed in 4% paraformaldehyde (PFA), permeabilized with 0.2% Triton™, 50 mM NH4Cl and blocked in 5% horse serum (HS). Single EDL myofibers were fixed with 4% PFA, permeabilized with 0.1% Triton™ in PBS and blocked in 5% horse serum (HS) with 0.1% Triton™ in PBS. TA muscles were fixed for 2 hr in 0.5% PFA at 4° C. and equilibrated overnight in 20% sucrose at 4° C. Tissues were mounted in Frozen Section Compound (VWR) and flash frozen in a liquid nitrogen-cooled isopentane bath. Transverse sections (10 μm) were permeabilized with 0.1% Triton™, 0.1M Glycine in PBS, and blocked in Mouse on Mouse (M.O.M.) reagent (Vector Labs).

Dmd^mdx mice = assay: In vivo administration by osmotic pump in Dmd^mdx mouse model of Duchenne muscular dystrophy
Method: FIG. 20 is a schematic diagram of in vivo administration of C15 by an osmotic pump in the Dmd^mdx mouse model of Duchenne muscular dystrophy, specifically Alzet™ 2001 osmotic pumps were used to deliver 2.5 mg/kg/day of C15 with a vehicle containing 50:50 DMSO:[…] at a flow rate of 0.5 μL/hr by a subcutaneous implantation of the Alzet™ 2001 osmotic pumps into Dmd^mdx mouse, and 14 days later muscle was harvested for quantification by fluorescence of the myofibre CSA (red) and PAX7(+) (green) satellite cell compartment.
In this example, the effect of C15 on the dephosphorylated levels of elF2α was studied. Animal care practices were performed in accordance with the federal Canadian Council on Animal Care, as practiced by McGill University. All mice were maintained on a C57/BI6 background. Dmd^mdx mice, aged 8-10 weeks, were implanted (sub-cutaneously) with osmotic pumps (Alzet™) to deliver C15 at a rate of 2.5 mg/kg/day. C15 was dissolved in a 50:50 solution of DMSO:PEG400. At indicated time points, muscle was harvested for analysis by immunofluorescence.
as §2

[3] = system: P-elF2α dependent read-through of Atf4 uORFs (Atf4-fluc reporter) in HEK293 cells; assay: Atf4-luciferase reporter (Fluc/Rluc ratio) in transfected HEK293 cells; type: cell-based
Source text: The Atf4- and Tacc3-luciferase constructs were made by cloning gBlock gene fragments (Integrated DNA Technologies) corresponding to 5′UTRs of Mus musculus Atf4 and Tacc3, fused to the 5′end of the fluc gene up to the Narl restriction enzyme site. Mutant versions of Atf4 and Tacc3 5′UTRs were designed with each ATG start codon of uORFs deleted. These 5′UTR gene fragments were cloned into Hindlll, Narl sites upstream of the firefly luciferase (fluc) gene in pGL3-promoter plasmids, thereby maintaining the final overlapping uORF with the main ORF for fluc (Promega™). FIG. 5A and FIG. 5B show a schematic of the formation of a pre-initiation complex that includes many factors including the a subunit (elF2α) that is dephosphorylated (FIG. 5A) or phosphorylated (FIG. 5B). The pre-initiation complex associates with the uORFs, where, if phosphorylated, translation initiation of the uORFs occurs upstream of Atf4 and continues to translate Atf4. However, if elF2α is dephosphorylated (FIG. 5A), no translation initiation occurs for Atf4 as the pre-initiation complex dissociates from the uORFs.
HEK293 cells were plated in 24-well plates at a density of 25,000 cells/well and incubated overnight. […] The cells were then lysed and the Fluc/Rluc ratio was determined using the Promega™ Dual-Luciferase Reporter kit (Madison, USA). […]

[4] = system: elF2α phosphorylation in C2C12 cells; assay: Immunoblot of P-elF2α and total elF2α in C2C12 cell lysates; type: cell-based
Method: as §1
For immunoblotting, cell lysates were obtained in RIPA buffer (ThermoFischer Scientific) supplemented with complete protease inhibitor cocktail (Roche) and phosphatase inhibitor cocktail (Sigma). The primary antibodies used were against PAX7 (DHSB), LAMININ (Sigma L9393), MYOG (Abcam 124800 and Santacruz sc-12732), and β-ACTIN (Sigma A5441). Alexa™ Fluor-488, Alexa™ Fluor-594 and Alexa™ Fluor-647 conjugated secondary anti-mouse IgG1, anti-mouse IgG2B or anti-rabbit antibodies (Life technologies) were used for immunofluorescence. Horseradish peroxidase (HRP) conjugated anti-mouse or anti-rabbit secondary antibodies (Jackson Immunoresearch) were used with the ECL™ Prime Western Blotting Detection reagents (GE Healthcare). Densitometry of immunoblots was performed with ImageJ™.
To determine the effect of C15 on elF2α phosphorylation, C2C12 cell lysates cultured for twelve hours in the presence of sal003 (10 μM) or C15 (0.1 μM and 0.2 μM) were immunoblotted.

satellite cells = assay: Ex vivo expansion of cultured cells; type: cell-based; conditions: sal003 concentrations lower than 10 μM
Method: Moreover, cells and single EDL myofibres were cultured in 39% Dulbecco's modified eagle medium (DMEM), 39% F12, 20% fetal calf serum (FCS) (Life Technologies), 2% UltroserG™ (Pall Life Sciences). C2C12 myoblasts were cultured in DMEM supplemented with 20% FCS. […]

Row | P-elF2α activity to enable read-through of uORFs after incubation at 37° C. (stability) ([3]; C15 10 μM, incubated at 37° C. for 0-3 weeks, HEK293 cells (FIG. 19)) | Compound | DDX6(+) RNA granules in PAX7-expressing MuSCs, culture of isolated MuSCs ([1]; 0.2 μM C15, 4-day culture (FIG. 9)) | DDX6(+) RNA granules in PAX7-expressing MuSCs, culture of single myofibres ([1]; 0.2 μM C15, after 6 h (FIG. 7, 8)) | fusion index (number of nuclei per myotube) ([2]; 0.2 μM C15, 7 days (FIG. 14)) | PAX7 expression of Dmd^mdx MuSCs ([2]; 0.2 μM C15, cultured 3 days (FIG. 10, 11)) | myocolony size ([2]; 0.2 μM C15, long periods of time (7 days; FIG. 12, 13)) | MuSC associated RNA granules (EDL myofibres) (Dmd^mdx mice; 2.5 mg/kg/day C15, osmotic pump s.c., two weeks (FIG. 21)) | myofiber cross sectional area of treated muscle (Dmd^mdx mice; 2.5 mg/kg/day C15, two weeks) | numbers of central nucleated myofibres (Dmd^mdx mice; 2.5 mg/kg/day C15, two weeks) | numbers of PAX7-expressing MuSCs on single EDL myofibres (Dmd^mdx mice; 2.5 mg/kg/day C15, two weeks (FIG. 23)) | numbers of PAX7-expressing MuSCs on transverse sections of tibialis anterior (TA) (Dmd^mdx mice; 2.5 mg/kg/day C15, two weeks (FIG. 24)) | numbers of PAX7-expressing MuSCs on transverse sections of diaphragm (Dmd^mdx mice; 2.5 mg/kg/day C15, two weeks (FIG. 25)) | luciferase activity (Atf4-fluc reporter) ([3]; HEK293 cells, overnight, 10 μM, compared with sal003, C10 and DMSO (FIG. 6)) | P-elF2α levels (P-elF2α : total elF2α) ([4]; C2C12 cells, 12 hours, C15 0.1 to 0.2 μM vs sal003 10 μM (FIG. 15, 16)) | activity of increasing P-elF2α levels after incubation at 37° C. (stability) ([4]; C15 10 μM, incubated at 37° C. for 0-3 weeks, C2C12 cells (FIG. 17, 18)) | ex vivo expansion of cells (satellite cells)
1 | maintained | CC(C)(C)c1ccc(NC(=S)NC(NC(=O)/C=C/c2ccccc2)C(Cl)(Cl)Cl)cc1 (stereo not shown) [C15] | maintained | maintained | larger fusion index | maintain PAX7 expression | larger myocolonies | maintenance of MuSC associated RNA granules | increased | decreased | increased numbers | increased numbers | increased numbers | significantly increases luciferase activity, higher than sal003 and C10 | increased the P-elF2α levels to a level equivalent to 10 μM sal003 | maintained the activity of increasing P-elF2α levels | –
2 | – | O=C(/C=C/c1ccccc1)NC(NC(=S)Nc1ccc(Cl)cc1)C(Cl)(Cl)Cl (stereo not shown) [sal003] | – | – | – | – | – | – | – | – | – | – | – | – | – | – | not possible to expand the cells ex vivo at sal003 concentrations lower than 10 μM
